The values that follow come from US5750540A, “1,4-di-substituted piperidine derivatives” (Banyu Pharmaceutical Co., Ltd., priority 1995, dated 1998).

Read-outs that look alike come from different tables or passages of the source.

Test [1] has as its target T1, airway M3 receptors (trachea) (Rattus norvegicus, UniProt P08483).
T1 construct: the trachea was excised; from tissue; host or cells: isolated rat trachea
Kind of test: Antagonism against airway M3 receptors in an isolated rat trachea. How it is done:
3) Tests for antagonism against the airway M3 receptors in an isolated rat trachea
These tests were performed according to an ordinary method. A male SD strain rat (weighing 300-500 g) was killed by exsanguination, and the trachea was excised. Annular segments (2 mm wide) were cut out from the trachea and cut open at the anterior cartilage part to make transversely sectioned trachea preparations. A preparation was suspended in a Magnus tube filled with 5 ml of Krebs-Henseleit nutrient solution (gassed with 95% O2 -5% CO2 and kept at 32° C.) with an initial tension of 1.0 g and a resting tension of 0.6 g. The tension of the preparation was recorded isometrically. After being equilibrated for an hour, the preparation was made to contract twice by treatment with 10^-4 M carbachol, and the second contraction induced by carbachol was used as the reference contraction. After the preparation was washed with fresh solution to make a return to the base line, a test compound was administered thereto (or no treatment was made). Ten minutes later, carbachol (10^-8 to 10^-3 M) was cumulatively administered in three-fold increasing doses to obtain a dose-response curve. The dose-response curve was constructed by expressing responses as percentages based on the reference contraction of the preparation. The antagonistic potency (KB value) of the test compound (i.e., a compound in accordance with the present invention) was determined from the degree of shift of the dose-response curve obtained by treatment with the test compound.

Test [2] addresses T2, muscarinic M3 receptor (Rattus norvegicus, UniProt P08483). Put plainly: Inhibition of binding to muscarinic M3 receptors ([3H]-N-methylscopolamine, lacrimal gland membrane). Also noted: a membrane specimen from the lacrimal glands was used as the membrane specimen; from tissue; host or cells: rat lacrimal gland membranes (SD rat). The procedure:
In these tests, their inhibitory and antagonistic effects were expressed in terms of the dissociation constant (Ki) of each test compound which was calculated from its concentration (IC50 ) causing a 50% inhibition of the binding of a labeled ligand to muscarinic receptors. As the labeled ligand, [^3 H]-telenzepine was used for the muscarinic M1 receptors and [^3 H]-N-methylscopolamine for the muscarinic M2 and M3 receptors.
A male SD strain rat (purchased from Nippon Charles River Co., Ltd.), weighing about 250-350 g, was sacrificed, and the cerebral cortex, heart and lacrimal glands were excised. Using a Polytron (setting 5), each organ was homogenized in 5 volumes of an ice-cold buffer solution (pH 7.4) containing 50 mM tris-HCl, 5 mM magnesium chloride, 1 mM trisodium ethylenediaminetetraacetate and 20% sucrose. The resulting homogenate was centrifuged at 3,000×g at 4° C. for 15 minutes, and the supernatant was filtered through gauze and ultracentrifuged at 100,000×g at 4° C. for 45 minutes. The resulting precipitate was suspended in an ice-cold buffer solution (pH 7.4) containing 50 mM tris-HCl and 5 mM magnesium chloride (hereinafter referred briefly to as "tris buffer") and ultracentrifuged at 100,000×g at 4° C. for 45 minutes. The resulting precipitate was suspended in tris buffer so as to give a concentration of 50 mg/ml and stored at -80° C. till use. The membrane specimens so prepared were thawed prior to use and submitted to tests for the inhibition of binding to muscarinic receptors.
4) Tests for the inhibition of binding to the muscarinic M2 receptors
The nonspecific binding of [^3 H]-N-methylscopolamine to receptors was determined by the addition of 1 mM N-methylscopolamine.

Test [3] has as its target T2, muscarinic M3 receptor. Put plainly: in vivo. Also noted: from tissue; host or cells: living rat, airways. The conditions noted are these: iv, read-out: Salivary secretion ID50. How it is done:
(§1) Tests for antagonism against muscarinic M3 receptor (in vivo)
2) Tests for salivary secretion in rats
Five- to seven-weeks-old male rats of the Sprague-Dawley strain were anesthetized with sodium pentobarbital (65 mg/kg, i.p.), and a cannula was inserted into the right jugular vein for purposes of drug administration. A test compound was administered intravenously. Five minutes later, carbachol (10 μg/kg, i.v.) was administered to evoke salivary secretion. For each rat, saliva collection was started immediately after carbachol administration and continued for ten minutes. This was carried out by inserting glass capillaries (Drummond, 100 μl) into the oral cavity of the rat at intervals of one minute. The amount of collected saliva was determined on the assumption that a length of 75 mm of the glass capillary corresponded to 100 μl. Physiological saline was used in the control group. The ID50 value was calculated from the dose-response curve of the test compound using probit analysis and defined as the drug dose that inhibited the carbachol-induced salivation in the control group by 50%.

Test [4] concerns the target T3, bladder M3 receptors (Rattus norvegicus, UniProt P08483).
T3 construct: the bladder was excised; from tissue; host or cells: isolated rat bladder
Put plainly: Antagonism against bladder M3 receptors in an isolated rat bladder. The conditions noted are these: in vitro, agonist carbachol. The procedure:
5) Tests for antagonism against the bladder M3 receptors in an isolated rat bladder
These tests were performed according to an ordinary method. A male SD strain rat (weighing 200-400 g) was killed by exsanguination, and the bladder was excised. This bladder axially cut into eight parts to make bladder preparations. A preparation was suspended in a Magnus tube filled with 5 ml of Krebs-Henseleit nutrient solution (gassed with 95% O2 -5% CO2 and kept at 32° C.) with an initial tension of 0.5 g. The tension of the preparation was recorded isometrically. After being equilibrated for an hour, the preparation was made to contract twice by treatment with 10^-4 M carbachol, and the second contraction induced by carbachol was used as the reference contraction. After the preparation was washed with fresh solution to make a return to the base line, a test compound was administered thereto (or no treatment was made). Ten minutes later, carbachol (10^-8 to 10^-3 M) was cumulatively administered from the lower-most concentration in three-fold increasing doses to obtain a dose-response curve. The dose-response curve was constructed by expressing responses as percentages based on the reference contraction of the preparation. The antagonistic potency (KB value) of the test compound was determined from the degree of shift of the dose-response curve obtained by treatment with the test compound.

The target of test [5] is T2, muscarinic M3 receptor. Put plainly: in vivo. The conditions noted are these: iv, 5 min, read-out: Airway contraction ID50. Further details: from tissue; host or cells: living rat, airways. The procedure:
as §1
1) Tests for bronchodilation in rats
Eight- to eleven-weeks-old male rats of the Sprague-Dawley strain, weighing 300-400 g, were anesthetized with urethane (750 mg/kg, i.p.) and a-chloralose (37.5 mg/kg, i.p.). A bronchus was intubated, and the right jugular vein was cannulated for drug administration. […] To evoke an increase in airway resistance, acetylcholine (50 μg/kg, i.v.) was administered to the animals. Mean values for the acetylcholine-induced increase in airway resistance as measured five minutes before (control) and five minutes after test compound administration were calculated and the results were expressed as percentages of the control response. The ID50 value was calculated from the dose-response curve of the test compound using probit analysis and defined as the drug dose that inhibited the acetylcholine-induced increase in airway resistance in the control group by 50 %.

T2 sequence (P08483 whole entry): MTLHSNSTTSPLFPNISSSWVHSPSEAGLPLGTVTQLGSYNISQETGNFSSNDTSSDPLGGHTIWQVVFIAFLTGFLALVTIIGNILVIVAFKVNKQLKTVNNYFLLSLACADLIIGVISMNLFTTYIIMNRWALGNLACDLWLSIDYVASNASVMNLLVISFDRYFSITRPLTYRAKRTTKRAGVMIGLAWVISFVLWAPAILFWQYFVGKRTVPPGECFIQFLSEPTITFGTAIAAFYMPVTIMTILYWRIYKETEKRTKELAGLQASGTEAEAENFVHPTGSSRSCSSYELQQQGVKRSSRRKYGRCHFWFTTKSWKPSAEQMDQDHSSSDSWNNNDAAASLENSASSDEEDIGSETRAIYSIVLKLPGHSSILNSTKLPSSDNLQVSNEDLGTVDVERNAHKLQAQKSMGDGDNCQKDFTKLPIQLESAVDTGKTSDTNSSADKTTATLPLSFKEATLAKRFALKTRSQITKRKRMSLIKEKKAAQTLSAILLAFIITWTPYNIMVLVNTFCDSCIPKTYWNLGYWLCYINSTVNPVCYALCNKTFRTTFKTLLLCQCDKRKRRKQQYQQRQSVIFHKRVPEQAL
T1 sequence (P08483 whole entry): as above
T3 sequence (P08483 whole entry): as above

As to `CC(C)=CCCN1CCC(NC(=O)C(O)(c2ccccc2)C2CCC2)CC1` (stereo not drawn) [Example 1, N-[1-(4-methyl-3-pentenyl)-piperidin-4-yl]-2-cyclobutyl-2-hydroxy-2-phenylacetamide], the Kb in test [1] (in vitro, isolated rat trachea, agonist carbachol) was found to be 19 nM; in test [4], 31 nM. For the same compound, in test [1] (ratio of KB, right atrium M2 over trachea M3 (* Trachea M3)), the “M2/M3 *” value was 79. In addition, in test [1] (ratio of KB, vas deferens M1 over trachea M3 (* Trachea M3)), the “M1/M3 *” value is 6.3. The compound also registered a Ki in test [2] of 8.9 nM. Moreover, the M1/M3 in test [2] (ratio of binding Ki, M1 over M3) was 5.0. Besides, the M2/M3 in test [2] (ratio of binding Ki, M2 over M3) was 96. In addition, the ED50 was found to be 0.19 mg/kg in test [3] and 0.023 mg/kg in test [5].

By Kb is commonly meant the affinity of an antagonist, worked out from how it opposes an agonist. The Ki is the dissociation constant of the complex between target and ligand, obtained from inhibition or displacement. A low value points to tighter binding.
